The subject of assay [1] is Staphylococcus aureus. Nature of the assay: Antibacterial activity against Staphylococcus aureus UAMS-1 AlbR D resistant mutant assessed as growth inhibition incubated at 16 to 24 hrs by CLSI method. The format is functional. Particulars: time 16-24 hrs.
Assay [2] has as its system Staphylococcus aureus. Nature of the assay: Antibacterial activity against Staphylococcus aureus NE939 Tn mutant assessed as growth inhibition incubated at 16 to 24 hrs by CLSI method. Particulars: time 16-24 hrs. The format is functional.
The test system of assay [3] is Staphylococcus aureus. As to the kind of experiment: Antibacterial activity against Staphylococcus aureus USA300 Tn mutant assessed as growth inhibition incubated at 16 to 24 hrs by CLSI method. The format is functional. To be noted: time 16-24 hrs.
Assay [4] has as its system Staphylococcus aureus. As to the kind of experiment: Antibacterial activity against Staphylococcus aureus UAMS-1 assessed as growth inhibition incubated at 16 to 24 hrs by CLSI method. The format is functional. To be noted: time 16-24 hrs.
Assay [5] has as its system Staphylococcus aureus. As to the kind of experiment: Antibacterial activity against Staphylococcus aureus UAMS-1 AlbR B resistant mutant assessed as growth inhibition incubated at 16 to 24 hrs by CLSI method. The format is functional. Particulars: time 16-24 hrs.
In assay [6] the test system is Staphylococcus aureus. Nature of the assay: Antibacterial activity against Staphylococcus aureus UAMS-1 AlbR A resistant mutant assessed as growth inhibition incubated at 16 to 24 hrs by CLSI method. The format is functional. To be noted: time 16-24 hrs.
For assay [7], the system named is Staphylococcus aureus. As to the kind of experiment: Antibacterial activity against Staphylococcus aureus NE1416 Tn mutant assessed as growth inhibition incubated at 16 to 24 hrs by CLSI method. Particulars: time 16-24 hrs. The assay is classed as functional.
Assay [8] deals with Staphylococcus aureus. As to the kind of experiment: Antibacterial activity against Staphylococcus aureus UAMS-1 AlbR C resistant mutant assessed as growth inhibition incubated at 16 to 24 hrs by CLSI method. The assay is classed as functional. Particulars: time 16-24 hrs.
Assay [9] deals with Staphylococcus aureus. Nature of the assay: Synergistic antibacterial activity against Staphylococcus aureus UAMS-1 AlbR D resistant mutant assessed as fractional inhibitory concentration index in presence of fosfomycin by broth microdilution assay. The assay is classed as functional.
The subject of assay [10] is Staphylococcus aureus. As to the kind of experiment: Inhibition of Staphylococcus aureus MurA expressed in Escherichia coli BL21(DE3) assessed as Kcat for DP-G1cNAc to EU- DP-G1cNAc conversion at 150 uM preincubated for 15 mins by HPLC method (reference value: 0.471 +/- 0.994 /min).
The subject of assay [11] is Staphylococcus aureus. Nature of the assay: Synergistic antibacterial activity against Staphylococcus aureus UAMS-1 AlbR B resistant mutant assessed as fractional inhibitory concentration index in presence of fosfomycin by broth microdilution assay. The assay is classed as functional. A general note: Dilution methods test growth across graded concentrations, often in twofold steps.

Assay [12] deals with Staphylococcus aureus. As to the kind of experiment: Inhibition of Staphylococcus aureus MurA expressed in Escherichia coli BL21(DE3) assessed as Kcat for DP-G1cNAc to EU- DP-G1cNAc conversion at 50 uM preincubated for 15 mins by HPLC method (reference value: 0.471 +/- 0.994 /min).
Assay [13] concerns Staphylococcus aureus. As to the kind of experiment: Inhibition of Staphylococcus aureus MurA expressed in Escherichia coli BL21(DE3) assessed as Vmax for DP-G1cNAc to EU- DP-G1cNAc conversion at 150 uM preincubated for 15 mins by HPLC method (reference value: 0.235 +/- 0.049 uM/min).
Assay [14] addresses Bacterial 70S ribosome. As to the kind of experiment: Binding affinity to Staphylococcus aureus 70S ribosome assessed as dissociation constant by measuring reduction in BODIPY-Erythromycin A binding incubated for 1.5 hr by fluorescence polarization assay. The format is subcellular. Background: In fluorescence polarisation assays a small probe gives low polarisation when free and higher when bound to something large.

Assay [15] is described as follows: Inhibition of Staphylococcus aureus MurA expressed in Escherichia coli BL21(DE3) assessed as using DP-G1cNAc as substrate preincubated for 15 mins by HPLC method.
In assay [16] the test system is Staphylococcus aureus. Nature of the assay: Synergistic antibacterial activity against Staphylococcus aureus UAMS-1 assessed as fractional inhibitory concentration index in presence of fosfomycin by broth microdilution assay. The assay is classed as functional.
Assay [17] deals with Staphylococcus aureus. As to the kind of experiment: Inhibition of Staphylococcus aureus MurA expressed in Escherichia coli BL21(DE3) assessed as Vmax for DP-G1cNAc to EU- DP-G1cNAc conversion at 100 uM preincubated for 15 mins by HPLC method (reference value: 0.235 +/- 0.049 uM/min).
Assay [18] has as its system Staphylococcus aureus. As to the kind of experiment: Inhibition of Staphylococcus aureus MurA expressed in Escherichia coli BL21(DE3) assessed as Vmax for DP-G1cNAc to EU- DP-G1cNAc conversion at 50 uM preincubated for 15 mins by HPLC method (reference value: 0.235 +/- 0.049 uM/min).
For assay [19], the system named is Staphylococcus aureus. As to the kind of experiment: Inhibition of Staphylococcus aureus MurA expressed in Escherichia coli BL21(DE3) assessed as Kcat for DP-G1cNAc to EU- DP-G1cNAc conversion at 100 uM preincubated for 15 mins by HPLC method (reference value: 0.471 +/- 0.994 /min).
The test system of assay [20] is Staphylococcus aureus. As to the kind of experiment: Synergistic antibacterial activity against Staphylococcus aureus UAMS-1 AlbR C resistant mutant assessed as fractional inhibitory concentration index in presence of fosfomycin by broth microdilution assay. The assay is classed as functional.
Assay [21] relates to Staphylococcus aureus. As to the kind of experiment: Synergistic antibacterial activity against Staphylococcus aureus UAMS-1 AlbR A resistant mutant assessed as fractional inhibitory concentration index in presence of fosfomycin by broth microdilution assay. The format is functional.
In assay [22] the target is Bacterial 70S ribosome. Nature of the assay: Binding affinity to Staphylococcus aureus 70S ribosome assessed as reduction in BODIPY-Erythromycin A binding incubated for 1.5 hr by fluorescence polarization assay. The assay is classed as subcellular.

From ChEMBL document CHEMBL4680355, “Staphylococcus aureus resistance to albocycline can be achieved by mutations that alter cellular NAD/PH pools” (Bioorg Med Chem, 2021) come the findings set out here.

≈ marks a conversion by molar mass, not a printed value.

As to `C[C@@H]1O[C@@H]1P(=O)(O)O` [FOSFOMYCIN], the MIC (as a rule, the lowest concentration that inhibits growth of the organism) with Staphylococcus aureus [1] was found to be 16 µg/mL (≈ 116 µM); in the assay on Staphylococcus aureus [2], 4 µg/mL (≈ 29 µM); in the assay on Staphylococcus aureus [3] it was 32 µg/mL (≈ 232 µM); in the assay on Staphylococcus aureus [4], 16 µg/mL (≈ 116 µM); in the assay on Staphylococcus aureus [5], 16 µg/mL (≈ 116 µM); with Staphylococcus aureus [6], 16 µg/mL (≈ 116 µM). For the same molecule, the MIC with Staphylococcus aureus [7] and in the assay with Staphylococcus aureus [8] was 16 µg/mL (≈ 116 µM) in each case.

Regarding `CO[C@H]1/C=C/[C@@](C)(O)/C=C/C(=O)O[C@H](C)[C@@H](C)CC/C=C/1C`, the “fractional inhibitory concentration index (FICI)” value in the assay with Staphylococcus aureus [9] was 0.5; in the assay with Staphylococcus aureus [11], 0.25; in the assay with Staphylococcus aureus [16] it was 1.004; in the assay with Staphylococcus aureus [20] it was 0.25; in the assay on Staphylococcus aureus [21] it was 0.5. For the same molecule, the MIC was more than 1020 µg/mL in the assay on Staphylococcus aureus [1]; 1 µg/mL (≈ 3.24 µM) in the assay with Staphylococcus aureus [2]; 1 µg/mL (≈ 3.24 µM) in the assay on Staphylococcus aureus [3]; 1 µg/mL (≈ 3.24 µM) in the assay with Staphylococcus aureus [4]; 512 µg/mL (≈ 1660 µM) with Staphylococcus aureus [5]; 512 µg/mL (≈ 1660 µM) in the assay with Staphylococcus aureus [6]. The figures for the MIC in the assay on Staphylococcus aureus [7] and in the assay on Staphylococcus aureus [8] were more than 256 µg/mL and more than 1020 µg/mL, respectively. Besides, the kcat – broadly, the number of substrate molecules converted per active site and unit of time at saturation – stood at 0.00159 s⁻¹ with Staphylococcus aureus [10], 0.00523 s⁻¹ in the assay with Staphylococcus aureus [12] and 0.0024 s⁻¹ in the assay with Staphylococcus aureus [19]. Besides, the Vmax (usually the top rate of the reaction or transport when substrate is in excess) came out at 0.0476 µM/min in the assay with Staphylococcus aureus [13], 0.0722 µM/min in the assay on Staphylococcus aureus [17] and 0.157 µM/min in the assay on Staphylococcus aureus [18]. The equilibrium dissociation constant (Kd) (in general, the free concentration of one partner at which half of the binding sites on the other are occupied at equilibrium, for simple one-to-one binding) at Bacterial 70S ribosome [14] was 2.4 nM. Also, the Ki (commonly a measure of affinity in units of concentration, obtained from inhibition or displacement) in [15] is 23600 nM.

For the molecule `CC[C@H]1OC(=O)[C@@](C)(F)C(=O)[C@H](C)[C@@H](O[C@@H]2O[C@H](C)C[C@H](N(C)C)[C@H]2O)[C@](C)(OC)C[C@@H](C)C(=O)[C@H](C)[C@H]2N(CCCCn3cc(-c4cccc(N)c4)nn3)C(=O)O[C@]12C` [SOLITHROMYCIN], the Ki on Bacterial 70S ribosome [22] worked out at 60.3 nM.
